Measured values: patent US9340590B2 (priority 2011, dated 2016)
Read-outs that look alike come from different tables or passages of the source. Positions of bridges follow the written chain, without caps; N, C: chain ends. Non-standard residues stand in square brackets, D forms with d. Residues, ends and D or L forms follow the SMILES beside them. Pra = C#CC[C@H](N)C(=O)O

Legend:
Experiment in all cases: cell-based
[1] = target: hNav1.7 (Homo sapiens, UniProt Q15858); assay type: cell-based; conditions: IonWorks Quattro, use-dependent protocol, hNav1.7; read-out: IWQ Use Nav1.7
[2] = target: hNav1.3 (Homo sapiens, UniProt Q9NY46); conditions: IonWorks Quattro, use-dependent protocol, hNav1.3; read-out: IWQ Use Nav1.3
[3] = target: hNav1.5 (Homo sapiens, UniProt Q14524)
[4] = IonWorks Quattro, use-dependent protocol, hNav1.5, read-out: IWQ Use Nav1.5

hNav1.5, sequence (Q14524 whole entry, looked up): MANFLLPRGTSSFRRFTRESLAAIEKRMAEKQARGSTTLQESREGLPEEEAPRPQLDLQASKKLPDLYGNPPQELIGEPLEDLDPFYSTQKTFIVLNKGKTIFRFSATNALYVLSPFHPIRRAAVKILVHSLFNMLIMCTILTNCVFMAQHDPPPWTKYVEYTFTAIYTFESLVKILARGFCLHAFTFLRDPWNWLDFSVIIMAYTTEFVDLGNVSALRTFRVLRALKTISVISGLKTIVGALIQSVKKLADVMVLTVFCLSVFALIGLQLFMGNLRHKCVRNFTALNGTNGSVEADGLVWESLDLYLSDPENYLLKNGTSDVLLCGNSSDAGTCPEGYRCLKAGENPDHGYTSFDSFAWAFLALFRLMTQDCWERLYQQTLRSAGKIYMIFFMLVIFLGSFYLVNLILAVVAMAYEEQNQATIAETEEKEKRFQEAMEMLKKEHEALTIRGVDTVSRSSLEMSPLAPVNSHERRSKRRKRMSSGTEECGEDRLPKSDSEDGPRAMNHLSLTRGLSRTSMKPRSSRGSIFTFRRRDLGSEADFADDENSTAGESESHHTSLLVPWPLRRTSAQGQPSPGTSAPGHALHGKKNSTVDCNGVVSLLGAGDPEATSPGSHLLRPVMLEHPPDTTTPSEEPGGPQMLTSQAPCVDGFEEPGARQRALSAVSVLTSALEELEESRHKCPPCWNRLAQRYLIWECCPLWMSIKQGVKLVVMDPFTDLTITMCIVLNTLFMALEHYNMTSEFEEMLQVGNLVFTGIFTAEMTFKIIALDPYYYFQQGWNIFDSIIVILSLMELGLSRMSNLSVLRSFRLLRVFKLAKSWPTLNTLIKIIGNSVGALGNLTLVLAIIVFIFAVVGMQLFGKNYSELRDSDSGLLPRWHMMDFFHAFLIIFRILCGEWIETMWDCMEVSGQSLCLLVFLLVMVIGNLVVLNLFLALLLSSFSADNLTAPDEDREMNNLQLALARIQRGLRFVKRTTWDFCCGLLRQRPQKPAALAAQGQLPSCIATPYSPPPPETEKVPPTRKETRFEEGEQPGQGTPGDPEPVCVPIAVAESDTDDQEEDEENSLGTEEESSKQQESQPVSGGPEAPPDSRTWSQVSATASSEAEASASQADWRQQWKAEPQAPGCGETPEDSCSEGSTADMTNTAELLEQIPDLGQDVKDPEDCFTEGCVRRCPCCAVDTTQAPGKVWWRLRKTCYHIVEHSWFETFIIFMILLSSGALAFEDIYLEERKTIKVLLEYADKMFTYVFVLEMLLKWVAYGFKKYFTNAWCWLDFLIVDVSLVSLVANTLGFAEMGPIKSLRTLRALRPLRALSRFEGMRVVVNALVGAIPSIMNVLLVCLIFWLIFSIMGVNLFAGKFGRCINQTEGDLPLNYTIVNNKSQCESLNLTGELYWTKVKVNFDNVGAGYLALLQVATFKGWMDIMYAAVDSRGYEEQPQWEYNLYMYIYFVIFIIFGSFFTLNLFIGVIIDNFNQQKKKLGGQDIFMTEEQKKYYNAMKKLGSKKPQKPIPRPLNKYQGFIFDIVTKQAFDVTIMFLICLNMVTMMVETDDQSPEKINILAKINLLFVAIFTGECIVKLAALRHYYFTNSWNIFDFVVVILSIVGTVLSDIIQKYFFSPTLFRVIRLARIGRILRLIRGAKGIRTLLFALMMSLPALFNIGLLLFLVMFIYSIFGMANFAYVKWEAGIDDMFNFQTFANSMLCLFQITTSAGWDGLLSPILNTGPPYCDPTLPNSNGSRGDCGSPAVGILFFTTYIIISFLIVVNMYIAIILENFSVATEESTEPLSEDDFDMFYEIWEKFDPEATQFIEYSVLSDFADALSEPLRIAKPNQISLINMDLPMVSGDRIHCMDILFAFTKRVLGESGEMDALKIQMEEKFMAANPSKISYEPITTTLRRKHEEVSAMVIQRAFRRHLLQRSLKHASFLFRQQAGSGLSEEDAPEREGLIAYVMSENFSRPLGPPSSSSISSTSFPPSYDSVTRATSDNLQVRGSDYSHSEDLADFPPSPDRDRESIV
hNav1.3, sequence (Q9NY46 whole entry, looked up): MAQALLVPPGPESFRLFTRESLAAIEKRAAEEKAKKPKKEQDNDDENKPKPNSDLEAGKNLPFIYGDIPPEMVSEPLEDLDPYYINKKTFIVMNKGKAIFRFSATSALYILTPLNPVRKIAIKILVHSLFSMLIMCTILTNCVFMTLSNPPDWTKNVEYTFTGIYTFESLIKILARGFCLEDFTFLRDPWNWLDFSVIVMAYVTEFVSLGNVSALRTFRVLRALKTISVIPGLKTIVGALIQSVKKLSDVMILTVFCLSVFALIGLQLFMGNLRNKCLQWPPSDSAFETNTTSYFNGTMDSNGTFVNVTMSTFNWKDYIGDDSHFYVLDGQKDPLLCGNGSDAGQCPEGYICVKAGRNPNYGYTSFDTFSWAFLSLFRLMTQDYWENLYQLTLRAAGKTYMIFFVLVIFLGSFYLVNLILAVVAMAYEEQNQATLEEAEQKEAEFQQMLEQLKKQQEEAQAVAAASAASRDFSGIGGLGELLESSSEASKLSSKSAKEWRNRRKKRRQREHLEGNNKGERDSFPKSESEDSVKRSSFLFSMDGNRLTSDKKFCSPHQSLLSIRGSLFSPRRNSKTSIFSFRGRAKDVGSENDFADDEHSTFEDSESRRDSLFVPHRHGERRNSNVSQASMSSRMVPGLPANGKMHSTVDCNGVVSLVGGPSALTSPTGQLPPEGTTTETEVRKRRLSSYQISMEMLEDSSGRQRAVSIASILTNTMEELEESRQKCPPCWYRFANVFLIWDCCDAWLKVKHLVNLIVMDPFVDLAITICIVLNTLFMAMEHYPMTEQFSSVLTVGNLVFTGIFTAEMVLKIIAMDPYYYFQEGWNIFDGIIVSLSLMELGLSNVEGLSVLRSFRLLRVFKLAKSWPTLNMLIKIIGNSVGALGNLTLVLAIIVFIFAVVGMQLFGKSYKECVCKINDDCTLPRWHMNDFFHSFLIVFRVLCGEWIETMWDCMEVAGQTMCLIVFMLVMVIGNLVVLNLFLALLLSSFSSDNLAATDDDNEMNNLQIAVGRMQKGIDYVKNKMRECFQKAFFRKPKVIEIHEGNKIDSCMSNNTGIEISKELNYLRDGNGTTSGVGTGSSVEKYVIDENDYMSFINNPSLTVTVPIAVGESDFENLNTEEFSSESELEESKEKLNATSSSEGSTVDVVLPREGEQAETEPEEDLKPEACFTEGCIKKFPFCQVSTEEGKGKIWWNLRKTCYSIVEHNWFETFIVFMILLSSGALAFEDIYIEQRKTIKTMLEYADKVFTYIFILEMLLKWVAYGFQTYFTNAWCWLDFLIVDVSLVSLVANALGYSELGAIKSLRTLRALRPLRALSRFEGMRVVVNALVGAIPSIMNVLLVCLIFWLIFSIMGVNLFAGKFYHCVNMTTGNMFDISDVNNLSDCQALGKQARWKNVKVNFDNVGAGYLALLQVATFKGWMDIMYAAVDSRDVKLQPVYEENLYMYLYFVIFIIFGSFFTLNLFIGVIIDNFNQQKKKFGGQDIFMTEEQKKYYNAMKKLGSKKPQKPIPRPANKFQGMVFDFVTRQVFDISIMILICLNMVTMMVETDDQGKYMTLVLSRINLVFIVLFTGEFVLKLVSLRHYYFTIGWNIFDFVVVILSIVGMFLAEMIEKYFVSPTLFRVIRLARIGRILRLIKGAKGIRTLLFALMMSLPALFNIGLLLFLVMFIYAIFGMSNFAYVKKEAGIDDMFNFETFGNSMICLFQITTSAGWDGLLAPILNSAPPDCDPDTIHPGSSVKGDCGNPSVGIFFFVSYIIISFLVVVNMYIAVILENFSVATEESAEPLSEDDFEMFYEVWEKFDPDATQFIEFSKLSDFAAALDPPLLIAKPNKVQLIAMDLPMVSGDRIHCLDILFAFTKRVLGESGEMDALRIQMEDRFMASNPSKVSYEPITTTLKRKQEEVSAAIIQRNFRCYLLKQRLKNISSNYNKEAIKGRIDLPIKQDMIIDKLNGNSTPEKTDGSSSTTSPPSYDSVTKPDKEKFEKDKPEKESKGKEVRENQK

Row | Structure (SMILES) | IC50 [1] | IC50 [2] | IC50 [3, 4] | IC50 ([3]; IWQ Use Nav1.5)
1 | C#CC[C@@H]1NC(=O)[C@H](CC(=O)O)NC(=O)[C@@H]2CCCN2C(=O)[C@H]([C@@H](C)CC)NC(=O)[C@@H]2CSSC[C@@H]3NC(=O)[C@H](C(C)C)NC(=O)[C@H](CC(C)C)NC(=O)[C@H](CC(N)=O)NC(=O)[C@@H]4CCCN4C(=O)[C@H](CCCNC(=N)N)NC(=O)[C@H](CSSC[C@H](NC(=O)[C@@H](N)CC(=O)O)C(=O)N[C@@H](CC(C)C)C(=O)NCC(=O)N[C@@H](C)C(=O)N[C@@H](Cc4ccccc4)C(=O)N[C@@H](CCCNC(=N)N)C(=O)N[C@@H](CCCCN)C(=O)N2)NC(=O)[C@H](CSSC[C@@H](C(=O)N[C@@H](CCCCN)C(=O)N[C@@H](Cc2ccc(O)cc2)C(=O)N[C@H](C(=O)N[C@@H](Cc2ccccc2)C(N)=O)C(C)C)NC(=O)[C@H](Cc2c[nH]c4ccccc24)NC(=O)[C@H](CCCNC(=N)N)NC(=O)[C@H](Cc2c[nH]cn2)NC(=O)[C@H](CC(C)C)NC(=O)[C@H](CCCNC(=N)N)NC(=O)[C@H](CO)NC3=O)NC(=O)[C@H](CCCCN)NC(=O)[C@H](CC(=O)O)NC1=O [compound 640] (H-DCLGAFRKCIPD[Pra]DKCCRPNLVCSRLHRWCKYVF-NH2; disulfide 2-17, 9-23, 16-30) | 103 nM | 90 nM | > 5 µM | 
2 | CC[C@H](C)[C@@H]1NC(=O)[C@@H]2CSSC[C@@H]3NC(=O)[C@H](C(C)C)NC(=O)[C@H](CC(C)C)NC(=O)[C@H](CC(N)=O)NC(=O)[C@@H]4CCCN4C(=O)[C@H](CCCNC(=N)N)NC(=O)[C@H](CSSC[C@H](NC(=O)[C@@H](N)CC(=O)O)C(=O)N[C@@H](CC(C)C)C(=O)NCC(=O)N[C@@H](CCSC)C(=O)N[C@@H](CC(C)C)C(=O)N[C@@H](CCCNC(=N)N)C(=O)N[C@@H](CCCCN)C(=O)N2)NC(=O)[C@H](CSSC[C@@H](C(=O)N[C@@H](CCCCN)C(=O)N[C@@H](Cc2ccc(O)cc2)C(=O)N[C@H](C(=O)N[C@@H](Cc2ccccc2)C(N)=O)C(C)C)NC(=O)[C@H](Cc2c[nH]c4ccccc24)NC(=O)[C@H](CCCCN)NC(=O)[C@H](Cc2c[nH]cn2)NC(=O)[C@H]([C@@H](C)O)NC(=O)[C@H](CCCNC(=N)N)NC(=O)[C@H](CO)NC3=O)NC(=O)[C@H](CCCCN)NC(=O)[C@H](CC(=O)O)NC(=O)[C@H](CC(N)=O)NC(=O)[C@H](CC(=O)O)NC(=O)[C@@H]2CCCN2C1=O [compound 641] (H-DCLGMLRKCIPDNDKCCRPNLVCSRTHKWCKYVF-NH2; disulfide 2-17, 9-23, 16-30) | 69 nM | 240 nM |  | > 5 µM
3 | CC[C@H](C)[C@@H]1NC(=O)[C@@H]2CSSC[C@@H]3NC(=O)[C@H](C(C)C)NC(=O)[C@H](CC(C)C)NC(=O)[C@H](CC(N)=O)NC(=O)[C@@H]4CCCN4C(=O)[C@H](CCCNC(=N)N)NC(=O)[C@H](CSSC[C@H](NC(=O)[C@@H](N)CC(=O)O)C(=O)N[C@@H](CC(C)C)C(=O)NCC(=O)N[C@@H](Cc4cccnc4)C(=O)N[C@@H](CC(C)C)C(=O)N[C@@H](CCCNC(=N)N)C(=O)N[C@@H](CCCCN)C(=O)N2)NC(=O)[C@H](CSSC[C@@H](C(=O)N[C@@H](CCCCN)C(=O)N[C@@H](Cc2ccc(O)cc2)C(=O)N[C@H](C(=O)N[C@@H](Cc2ccccc2)C(N)=O)C(C)C)NC(=O)[C@H](Cc2c[nH]c4ccccc24)NC(=O)[C@H](CCCCN)NC(=O)[C@H](Cc2c[nH]cn2)NC(=O)[C@H]([C@@H](C)O)NC(=O)[C@H](CCCNC(=N)N)NC(=O)[C@H](CO)NC3=O)NC(=O)[C@H](CCCCN)NC(=O)[C@H](CC(=O)O)NC(=O)[C@H](CC(N)=O)NC(=O)[C@H](CC(=O)O)NC(=O)[C@@H]2CCCN2C1=O [compound 642] | 1700 nM | 3900 nM | > 5 µM | 
4 | CC[C@H](C)[C@@H]1NC(=O)[C@@H]2CSSC[C@@H]3NC(=O)[C@H](C(C)C)NC(=O)[C@H](CC(C)C)NC(=O)[C@H](CC(N)=O)NC(=O)[C@@H]4CCCN4C(=O)[C@H](CCCNC(=N)N)NC(=O)[C@H](CSSC[C@H](NC(=O)[C@@H](N)CC(=O)O)C(=O)N[C@@H](CC(C)C)C(=O)NCC(=O)N[C@@H](CO)C(=O)N[C@@H](CC(C)C)C(=O)N[C@@H](CCCNC(=N)N)C(=O)N[C@@H](CCCCN)C(=O)N2)NC(=O)[C@H](CSSC[C@@H](C(=O)N[C@@H](CCCCN)C(=O)N[C@@H](Cc2ccc(O)cc2)C(=O)N[C@H](C(=O)N[C@@H](Cc2ccccc2)C(N)=O)C(C)C)NC(=O)[C@H](Cc2c[nH]c4ccccc24)NC(=O)[C@H](CCCCN)NC(=O)[C@H](Cc2c[nH]cn2)NC(=O)[C@H]([C@@H](C)O)NC(=O)[C@H](CCCNC(=N)N)NC(=O)[C@H](CO)NC3=O)NC(=O)[C@H](CCCCN)NC(=O)[C@H](CC(=O)O)NC(=O)[C@H](CC(N)=O)NC(=O)[C@H](CC(=O)O)NC(=O)[C@@H]2CCCN2C1=O [compound 643] (H-DCLGSLRKCIPDNDKCCRPNLVCSRTHKWCKYVF-NH2; disulfide 2-17, 9-23, 16-30) | 1300 nM | 3200 nM | > 5 µM | 
5 | CC[C@H](C)[C@@H]1NC(=O)[C@@H]2CSSC[C@@H]3NC(=O)[C@H](C(C)C)NC(=O)[C@H](CC(C)C)NC(=O)[C@H](CC(N)=O)NC(=O)[C@@H]4CCCN4C(=O)[C@H](CCCNC(=N)N)NC(=O)[C@H](CSSC[C@H](NC(=O)[C@@H](N)CC(=O)O)C(=O)N[C@@H](CC(C)C)C(=O)NCC(=O)N[C@@H](C(C)C)C(=O)N[C@@H](CC(C)C)C(=O)N[C@@H](CCCNC(=N)N)C(=O)N[C@@H](CCCCN)C(=O)N2)NC(=O)[C@H](CSSC[C@@H](C(=O)N[C@@H](CCCCN)C(=O)N[C@@H](Cc2ccc(O)cc2)C(=O)N[C@H](C(=O)N[C@@H](Cc2ccccc2)C(N)=O)C(C)C)NC(=O)[C@H](Cc2c[nH]c4ccccc24)NC(=O)[C@H](CCCCN)NC(=O)[C@H](Cc2c[nH]cn2)NC(=O)[C@H]([C@@H](C)O)NC(=O)[C@H](CCCNC(=N)N)NC(=O)[C@H](CO)NC3=O)NC(=O)[C@H](CCCCN)NC(=O)[C@H](CC(=O)O)NC(=O)[C@H](CC(N)=O)NC(=O)[C@H](CC(=O)O)NC(=O)[C@@H]2CCCN2C1=O [compound 644] (H-DCLGVLRKCIPDNDKCCRPNLVCSRTHKWCKYVF-NH2; disulfide 2-17, 9-23, 16-30) | 150 nM | 480 nM | > 5 µM | 
6 | CC[C@H](C)[C@@H]1NC(=O)[C@@H]2CSSC[C@@H]3NC(=O)[C@H](C(C)C)NC(=O)[C@H](CC(C)C)NC(=O)[C@H](CC(N)=O)NC(=O)[C@@H]4CCCN4C(=O)[C@H](CCCNC(=N)N)NC(=O)[C@H](CSSC[C@H](NC(=O)[C@@H](N)CC(=O)O)C(=O)N[C@@H](CC(C)C)C(=O)NCC(=O)N[C@@H](Cc4ccc(OC)c(OC)c4)C(=O)N[C@@H](CC(C)C)C(=O)N[C@@H](CCCNC(=N)N)C(=O)N[C@@H](CCCCN)C(=O)N2)NC(=O)[C@H](CSSC[C@@H](C(=O)N[C@@H](CCCCN)C(=O)N[C@@H](Cc2ccc(O)cc2)C(=O)N[C@H](C(=O)N[C@@H](Cc2ccccc2)C(N)=O)C(C)C)NC(=O)[C@H](Cc2c[nH]c4ccccc24)NC(=O)[C@H](CCCCN)NC(=O)[C@H](Cc2c[nH]cn2)NC(=O)[C@H]([C@@H](C)O)NC(=O)[C@H](CCCNC(=N)N)NC(=O)[C@H](CO)NC3=O)NC(=O)[C@H](CCCCN)NC(=O)[C@H](CC(=O)O)NC(=O)[C@H](CC(N)=O)NC(=O)[C@H](CC(=O)O)NC(=O)[C@@H]2CCCN2C1=O [compound 645] | 2400 nM | 2600 nM | > 5 µM | 
